Assay results published in patent publication US7923450B2, “Modulators for amyloid beta” (Hoffmann-La Roche Inc., priority 2008, dated 2011).
pEC50: −log10 of the molar value.

Columns and labels:
[1] = tested on: γ-secretase; test: Cellular γ-secretase assay (Aβ42 secretion); format: cell-based; details: inhibition of Aβ42 secretion; human neuroglioma H4 cells overexpressing human APP; 22 hrs incubation; read-out: EC50 in vitro
Procedure: Cellular γ-Secretase Assay
Human neuroglioma H4 cells overexpressing human APP were plated at 30,000 cells/well/200 μl in 96-well plates in IMDM media containing 10% FCS, 0.2 mg/l Hygromycin B and incubated for 2 h at 37° C., 5% CO2 prior to adding test compounds.
Compounds for testing were dissolved in 100% Me2SO yielding in a 10 mM stock solution. Typically 12 μl of these solutions were further diluted in 1000 μl of IMDM media (w/o FCS,). Sub sequential 1:1 dilutions gave a ten point dose response curve. 100 μl of each dilution was added to the cells in 96-well plates. Appropriate controls using vehicle only and reference compound were applied to this assay. The final concentration of Me2SO was 0.4%.
After incubation for 22 hrs at 37° C., 5% CO2, 50 μl supernatant was transferred into round-bottom 96-well polypropylene plates for detection of Aβ42. 50 μl assay buffer (50 mM Tris/Cl, pH 7.4, 60 mM NaCl, 0.5% BSA, 1% TWEEN 20) was added to the wells followed by the addition of 100 μl of detection antibody (ruthenylated Aβ42-specific antibody BAP15 0.0625 μg/mL in assay buffer). 50 μl of a premix of capture antibody (biotinylated 6E10 antibody, 1 μg/mL) and Steptavidin-coated magnetic beads (Dynal M-280, 0.125 mg/mL) were preincubated for 1 hr at room temperature before adding the assay plates. Assay plates were incubated on a shaker for 3 hrs at room temperature and finally read in the Bioveris M8 Analyser according to the manufacturer's instructions (Bioveris).
EC50 values for inhibition of Aβ42 secretion were calculated by nonlinear regression fit analysis using XLfit 4.0 software (IDBS).

SMILES | melting point [°C] | pEC50 [1]
Cc1cn(-c2ccc(Nc3ncc4c(n3)C(c3cc(C(F)(F)F)cc(C(F)(F)F)c3)CCC4)cc2F)cn1 (centres unmarked) [Example 61, [8-(3,5-Bis-trifluoromethyl-phenyl)-5,6,7,8-tetrahydro-quinazolin-2-yl]-[3-fluoro-4-(4-methyl-imidazol-1-yl)-phenyl]-amine] | 200 to 202 | –
Cc1cn(-c2ccc(Nc3nc4c(s3)CCCC4c3ccc(OC(F)(F)F)cc3)cc2F)cn1 (centres unmarked) [Example 34, [3-Fluoro-4-(4-methyl-imidazol-1-yl)-phenyl]-[4-(4-trifluoromethoxy-phenyl)-4,5,6,7-tetrahydro-benzothiazol-2-yl]-amine] | 148 to 151 | –
Cc1cn(-c2ccc(Nc3nc4c(s3)CCCC4(C)c3ccccc3)cc2F)cn1 (centres unmarked) [Example 31, [3-Fluoro-4-(4-methyl-imidazol-1-yl)-phenyl]-(4-methyl-4-phenyl-4,5,6,7-tetrahydro-benzothiazol-2-yl)-amine] | 160 to 164 | –
COc1cc(Nc2nc(O)c3c(n2)C(c2ccccc2)CN(C)C3)ccc1-n1cnc(C)c1 (centres unmarked) [Example 53, 2-[3-Methoxy-4-(4-methyl-imidazol-1-yl)-phenylamino]-6-methyl-8-phenyl-5,6,7,8-tetrahydro-pyrido[4,3-d]pyrimidin-4-ol] | 152 to 155 | –
COc1cc(Nc2nc3c(s2)CCCC3c2ccc(Cl)cc2Cl)ccc1-n1cnc(C)c1 (centres unmarked) [Example 25, [4-(2,4-Dichloro-phenyl)-4,5,6,7-tetrahydro-benzothiazol-2-yl]-[3-methoxy-4-(4-methyl-imidazol-1-yl)-phenyl]-amine] | – | 7.00
Cc1cn(-c2ccc(Nc3ncc4c(n3)C(C)(c3ccccc3)CCC4)cc2F)cn1 (centres unmarked) [Example 56, [3-Fluoro-4-(4-methyl-imidazol-1-yl)-phenyl]-(8-methyl-8-phenyl-5,6,7,8-tetrahydro-quinazolin-2-yl)-amine] | 157 to 158 | –
Cc1ncc(-c2ccc(Nc3nc4c(s3)CCCC4c3ccccc3)cc2)o1 (centres unmarked) [Example 68, [4-(2-Methyl-oxazol-5-yl)-phenyl]-(4-phenyl-4,5,6,7-tetrahydro-benzothiazol-2-yl)-amine] | – | 6.89
COC(=O)C1CC2(Cc3cnc(Nc4ccc(-n5cnc(C)c5)c(OC)c4)nc31)OCCO2 (centres unmarked) [Example 55, Methyl 6,6-ethylendioxy-2-[3-methoxy-4-(4-methyl-imidazol-1-yl)-phenylamino]-5,6,7,8-tetrahydro-quinazoline-8-carboxylate] | 180 to 182 | –
Cc1cn(-c2ccc(Nc3nc4c(s3)CCCC4c3ccccc3)cc2)cn1 (centres unmarked) [Example 18, [4-(4-Methyl-imidazol-1-yl)-phenyl]-(4-phenyl-4,5,6,7-tetrahydro-benzothiazol-2-yl)-amine] | – | 6.89
COc1cc(Nc2nc3c(s2)CCCC3c2ccccc2)ccc1-c1sc(C)nc1C (centres unmarked) [Example 93, [4-(2,4-Dimethyl-thiazol-5-yl)-3-methoxy-phenyl]-(4-phenyl-4,5,6,7-tetrahydro-benzothiazol-2-yl)-amine] | – | 6.67
COc1cc(Nc2nc3c(s2)CCCC3c2ccccc2)ccc1-c1nc(C)no1 (centres unmarked) [Example 89, [3-Methoxy-4-(3-methyl-[1,2,4]oxadiazol-5-yl)-phenyl]-(4-phenyl-4,5,6,7-tetrahydro-benzothiazol-2-yl)-amine] | 228 to 231 | –
Cc1cn(-c2ccc(Nc3nc4c(s3)CCCC4c3ccccc3)cc2C#N)cn1 (centres unmarked) [Example 21, 2-(4-Methyl-imidazol-1-yl)-5-(4-phenyl-4,5,6,7-tetrahydro-benzothiazol-2-ylamino)-benzonitrile] | – | 6.92
COc1cc(Nc2nc3c(s2)CCCC3c2cc(C(F)(F)F)cc(C(F)(F)F)c2)ccc1-n1cnc(C)c1 (centres unmarked) [Example 29, [4-(3,5-Trifluoromethyl-phenyl)-4,5,6,7-tetrahydro-benzothiazol-2-yl]-[3-methoxy-4-(4-methyl-imidazol-1-yl)-phenyl]-amine] | – | 7.00

More lines, now with the values ahead:

melting point [°C] | pEC50 [1] | SMILES
156 to 158 | – | COc1cc(Nc2ncc3c(n2)C(CC#N)(c2ccc(Cl)cc2)CCC3)ccc1-n1cnc(C)c1 (centres unmarked) [Example 52, {8-(4-Chloro-phenyl)-2-[3-methoxy-4-(4-methyl-imidazol-1-yl)-phenylamino]-5,6,7,8-tetrahydro-quinazolin-8-yl}-acetonitrile]
181 to 183 | – | COc1cc(Nc2ncc3c(n2)C(c2ccccn2)CCC3)ccc1-n1cnc(C)c1 (centres unmarked) [Example 84, [3-Methoxy-4-(4-methyl-imidazol-1-yl)-phenyl]-(8-pyridin-2-yl-5,6,7,8-tetrahydro-quinazolin-2-yl)-amine]
214 to 216 | – | COc1cc(Nc2ncc3c(n2)C(N2CCOCC2)CCC3)ccc1-n1cnc(C)c1 (centres unmarked) [Example 81, [3-Methoxy-4-(4-methyl-imidazol-1-yl)-phenyl]-(8-morpholin-4-yl-5,6,7,8-tetrahydro-quinazolin-2-yl)-amine]
207 to 209 | – | Cc1cn(-c2ccc(Nc3ncc4c(n3)C(c3cccc(C(F)(F)F)c3)CCC4)cc2F)cn1 (centres unmarked) [Example 57, [3-Fluoro-4-(4-methyl-imidazol-1-yl)-phenyl]-[8-(3-trifluoromethyl-phenyl)-5,6,7,8-tetrahydro-quinazolin-2-yl]-amine]
191 to 193 | – | COc1cc(Nc2ncc3c(n2)C(c2ccc(F)cc2)CCC3)ccc1-n1cnc(C)c1 (centres unmarked) [Example 51, [8-(4-Fluoro-phenyl)-5,6,7,8-tetrahydro-quinazolin-2-yl]-[3-methoxy-4-(4-methyl-imidazol-1-yl)-phenyl]-amine]
142 to 145 | – | CCOC(=O)C1CCCc2cnc(Nc3ccc(-n4cnc(C)c4)c(F)c3)nc21 (centres unmarked) [Example 59, Ethyl 2-[3-fluoro-4-(4-methyl-imidazol-1-yl)-phenylamino]-5,6,7,8-tetrahydro-quinazoline-8-carboxylate]
213 to 215 | – | COc1cc(Nc2ncc3c(n2)C(c2cccc(C(F)(F)F)c2)CCC3)ccc1-n1cnc(C)c1 (centres unmarked) [Example 47, [3-Methoxy-4-(4-methyl-imidazol-1-yl)-phenyl]-[8-(3-trifluoromethyl-phenyl)-5,6,7,8-tetrahydro-quinazolin-2-yl]-amine]
207 to 209 | – | COc1cc(Nc2ncc3c(n2)C(C)(c2ccccc2)CCC3)ccc1-n1cnc(C)c1 (centres unmarked) [Example 45, [3-Methoxy-4-(4-methyl-imidazol-1-yl)-phenyl]-(8-methyl-8-phenyl-5,6,7,8-tetrahydro-quinazolin-2-yl)-amine]
150 to 152 | – | COc1cc(Nc2ncc3c(n2)C(C(=O)N(C)C)CCC3)ccc1-n1cnc(C)c1 (centres unmarked) [Example 86, 2-[3-Methoxy-4-(4-methyl-imidazol-1-yl)-phenylamino]-5,6,7,8-tetrahydro-quinazoline-8-carboxylic acid dimethylamide]
166 to 168 | – | CCCC1(c2cccc(OC)c2)CCCc2cnc(Nc3ccc(-n4cnc(C)c4)c(OC)c3)nc21 (centres unmarked) [Example 46, [3-Methoxy-4-(4-methyl-imidazol-1-yl)-phenyl]-[8-(3-methoxy-phenyl)-8-propyl-5,6,7,8-tetrahydro-quinazolin-2-yl]-amine]
162 to 164 | – | CCOC(=O)C1CCCc2cnc(Nc3ccc(-n4cnc(C)c4)c(OC)c3)nc21 (centres unmarked) [Example 54, Ethyl 2-[3-methoxy-4-(4-methyl-imidazol-1-yl)-phenylamino]-5,6,7,8-tetrahydro-quinazoline-8-carboxylate]
212 to 214 | – | COc1cc(Nc2ncc3c(n2)C(c2nc(C)no2)CCC3)ccc1-n1cnc(C)c1 (centres unmarked) [Example 64, [3-Methoxy-4-(4-methyl-imidazol-1-yl)-phenyl]-[8-(3-methyl-[1,2,4]oxadiazol-5-yl)-5,6,7,8-tetrahydro-quinazolin-2-yl]-amine]
218 to 220 | – | COc1cc(Nc2ncc3c(n2)C(c2cc(Cl)ccc2Cl)CCCC3)ccc1-n1cnc(C)c1 (centres unmarked) [Example 62, [9-(2,5-Dichloro-phenyl)-6,7,8,9-tetrahydro-5H-cycloheptapyrimidin-2-yl]-[3-methoxy-4-(4-methyl-imidazol-1-yl)-phenyl]-amine]
150 to 153 | – | CCOC(=O)C1CCc2cnc(Nc3ccc(-n4cnc(C)c4)c(OC)c3)nc21 (centres unmarked) [Example 63, Ethyl 2-[3-methoxy-4-(4-methyl-imidazol-1-yl)-phenylamino]-6,7-dihydro-5H-cyclopentapyrimidine-7-carboxylate]
– | 6.35 | COc1cc(Nc2ncc3c(n2)C(c2ccccc2)CN(C(C)C)C3)ccc1-n1cnc(C)c1 (centres unmarked) [Example 80, (6-Isopropyl-8-phenyl-5,6,7,8-tetrahydro-pyrido[4,3-#d!]pyrimidin-2-yl)-[3-methoxy-4-(4-methyl-imidazol-1-yl)-phenyl]-amine]
– | 6.33 | COc1cc(Nc2ncc3c(n2)C(C2CCCCC2)CCC3)ccc1-n1cnc(C)c1 (centres unmarked) [Example 71, (8-Cyclohexyl-5,6,7,8-tetrahydro-quinazolin-2-yl)-[3-methoxy-4-(4-methyl-imidazol-1-yl)-phenyl]-amine]
